Data published in patent US10370372B2, “Fused pyrimidine compound or salt thereof” (TAIHO PHARMACEUTICAL CO., LTD., priority 2015, dated 2019).

How the values were obtained:
Assay type in all cases: cell-based
human androgen receptor = molecular target: T1, human androgen receptor (Homo sapiens, UniProt P10275); experiment: Antagonist activity for AR: MMTV-luc reporter transcription in COS-7 cells transfected with human AR, stimulated with DHT
T1 construct: expressed in transfected cells; host or cells: COS-7 cells (ATCC)
T1 sequence (P10275 1-920): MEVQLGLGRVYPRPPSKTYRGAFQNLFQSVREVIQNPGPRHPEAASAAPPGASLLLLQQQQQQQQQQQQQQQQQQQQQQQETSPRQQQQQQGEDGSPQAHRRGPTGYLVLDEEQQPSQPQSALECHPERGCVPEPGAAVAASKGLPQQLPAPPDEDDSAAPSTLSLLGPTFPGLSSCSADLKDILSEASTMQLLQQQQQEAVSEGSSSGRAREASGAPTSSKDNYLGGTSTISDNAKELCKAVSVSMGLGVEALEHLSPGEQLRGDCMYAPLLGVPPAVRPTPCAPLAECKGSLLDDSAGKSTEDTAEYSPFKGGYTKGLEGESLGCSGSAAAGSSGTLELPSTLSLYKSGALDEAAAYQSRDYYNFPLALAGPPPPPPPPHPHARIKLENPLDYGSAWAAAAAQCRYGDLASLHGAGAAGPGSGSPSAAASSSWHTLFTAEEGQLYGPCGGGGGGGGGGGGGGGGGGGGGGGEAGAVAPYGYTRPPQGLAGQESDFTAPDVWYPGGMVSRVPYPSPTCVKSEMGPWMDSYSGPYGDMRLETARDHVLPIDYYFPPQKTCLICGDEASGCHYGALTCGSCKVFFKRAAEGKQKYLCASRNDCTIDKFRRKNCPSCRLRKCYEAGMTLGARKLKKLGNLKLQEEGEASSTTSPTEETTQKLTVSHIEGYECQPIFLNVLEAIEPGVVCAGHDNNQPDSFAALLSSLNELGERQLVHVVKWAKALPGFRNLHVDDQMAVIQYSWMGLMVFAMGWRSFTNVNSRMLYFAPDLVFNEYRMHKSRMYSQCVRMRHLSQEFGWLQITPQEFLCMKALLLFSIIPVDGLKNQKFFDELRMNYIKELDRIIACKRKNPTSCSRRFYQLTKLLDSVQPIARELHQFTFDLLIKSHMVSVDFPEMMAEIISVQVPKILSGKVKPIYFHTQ
Procedure: Antagonist activity for AR was evaluated according to the following method. COS-7 cells (ATCC) were transfected with pMMTV-luc vector (reporter plasmid having, as an androgen response element, […] long terminal repeat) and pEX-hAR vector (human androgen receptor expression vector: which expresses human AR gene under control of CMV promoter) by using Nucleofector (registered trademark) Kit R (Lonza) as a transfection reagent and Amaxa (Lonza). The COS-7 cells obtained after transfection were seeded in a clear bottom 96 well microplate (BD) at 1.5×10^4/well with phenol red free RPMI1640 containing 10% charcoal-treated fetal bovine serum (hereinbelow, DCC-FBS) (hereinbelow, the medium is referred to as an evaluation medium), and then cultured overnight. […] Then, the transcription activity value of the reporter plasmid was measured. The transcription activity was measured by using Bright-Glo™ Luciferase Assay System (Promega).

[1] = test system: Human prostate cancer cells LNCaP; experiment: Inhibitory activity on androgen-dependent proliferation of prostate cancer cells; conditions: 1 nmol/L DHT, 72 hours, Cell Counting Kit-8, read-out: Proliferation inhibition concentration GI50 value
Procedure: Human prostate cancer cells LNCaP (Non-Patent Literature 5) having […] androgen receptor gene were seeded in a clear bottom 96 well microplate (BD) at 4.0×10^3/well with phenol red free RPMI1640 containing 5% DCC-FBS (hereinbelow, the medium is referred to as an evaluation medium), and then cultured overnight. […] Then, the number of viable cells was measured. The number of viable cells was measured by using Cell Counting Kit-8 (DOJINDO LABORATORIES).

[2] = test system: AR positive human prostate cancer cells VCaP; experiment: Agonist activity for AR: cell proliferation rate of VCaP cells; conditions: 5-10000 nmol/L, 72 hours, relative to evaluation medium only, more than 10% = agonist activity
Procedure: Then, the number of viable cells was measured (test group). As a control, the cells were cultured after being added with the evaluation medium only, and the number of viable cells was measured (control group). The number of viable cells was measured by using CellTiter-Glo™ Luminescent Cell Viability Assay (Promega). From the measured number of viable cells, cell proliferation rate with respect to the compound of Examples or the compound of Comparative Examples was calculated based on the number of viable cells measured in the case of using the evaluation medium only. Cell proliferation rate (%)=(Number of viable cells in test group−Number of viable cells in control group)/(Number of viable cells in control group)×100
By considering an error in the number of viable cells measured in the case of using the evaluation medium only, when the cell proliferation rate was more than 10% at any concentration of the 8 concentrations which had been evaluated, it was determined to have an agonist activity for AR.

AR expression in LNCaP = experiment: Activity of reducing expression level of androgen receptor (Western blotting in LNCaP); conditions: Homo sapiens, 48 h, read-out: AR expression reducing activity
Procedure: AR positive human prostate cancer cells LNCaP were seeded in a 6 well microplate (BD) at 3.5×10^5/well with RPMI1640 containing 5% FBS (hereinbelow, the medium is referred to as an evaluation medium), and then cultured overnight. […] After culture for 48 hours, the medium was removed and the cells were washed with PBS and added with 0.1 mL of Lysis buffer (M-PER added with Protease Inhibitor Cocktail), followed by keeping at 4° C. for 20 minutes. After cell lysis, the cell solution was centrifuged to recover the supernatant as cell lysate. […] The antibody-reacting band (anti AR receptor) was quantified by LAS Imaging System (FUJIFILM) using Super Signal West Dura Substrate (Thermo Scientific) as a detection reagent.
When the AR expression reducing activity is 50% or more, it is described as “reduced”.

Compound: CCNC(=O)c1ccc(Nc2ncnc3c2CCN(c2ccc(C#N)c(C(F)(F)F)c2)C3)nc1F [Example 4, 6-((7-(4-cyano-3-(trifluoromethyl)phenyl)-5,6,7,8-tetrahydropyrido[3,4-d]pyrimidin-4-yl)amino)-N-ethyl-2-fluoronicotinamide]
- IC50 (human androgen receptor): 45 nM
- GI50 [1]: 1100 nM
- Cell proliferation rate (%) [2]: 9.7%
- inhibition at 10 µM (AR expression in LNCaP): > 50%

Compound: COc1ccc(Nc2ncnc3c2CCN(c2ccc(C#N)c(C(F)(F)F)c2)C3)cc1OC [Example 26, 4-(4-((3,4-Dimethoxyphenyl)amino)-5,6-dihydropyrido[3,4-d]pyrimidin-7(8H)-yl)-2-(trifluoromethyl)benzonitrile]
- IC50 (human androgen receptor): 1100 nM
- GI50 [1]: 1200 nM
- Cell proliferation rate (%) [2]: 4.5%
- inhibition at 10 µM (AR expression in LNCaP): > 50%

Compound: C#CCNC(=O)c1ccc(Nc2ncnc3c2CCN(c2ccc(C#N)c(C(F)(F)F)c2)C3)nn1 [Example 11, 6-((7-(4-cyano-3-(trifluoromethyl)phenyl)-5,6,7,8-tetrahydropyrido[3,4-d]pyrimidin-4-yl)amino)-N-(prop-2-yn-1-yl)pyridazine-3-carboxamide]
- IC50 (human androgen receptor): 25 nM
- GI50 [1]: 950 nM
- Cell proliferation rate (%) [2]: 4.9%
- inhibition at 10 µM (AR expression in LNCaP): > 50%
